In ChEMBL document CHEMBL1201862, “PubChem BioAssay data set” (2004):
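1) Cells in 96-well plates. 2) Compound, 48 h, 5 concentrations. 3) Linear interpolation between surrounding doses. 4) Unreached endpoint = highest concentration. GI50 marks 50% less growth.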 Activity calls are given as the source filed them. Rule as the data show it: active = GI50 up to about 1.1 µM and inactive = higher.

Experiments:
Assay in all cases: NCI tumour cell line growth inhibition, 48 h
TK-10 = system: TK-10
SK-MEL-2 = system: SK-MEL-2
786-0 = system: 786-0
RXF 393 = system: RXF 393
KM-20L2 = system: KM-20L2
COLO 205 = system: COLO 205
NCI-H23 = system: NCI-H23
HOP-92 = system: HOP-92
NCI-H460 = system: NCI-H460
SF-295 = system: SF-295
SK-MEL-28 = system: SK-MEL-28
OVCAR-8 = system: OVCAR-8
CCRF-CEM = system: CCRF-CEM
HCT-15 = system: HCT-15

| SMILES | GI50 (TK-10) | GI50 (SK-MEL-2) | GI50 (786-0) | GI50 (RXF 393) | GI50 (KM-20L2) | GI50 (COLO 205) | GI50 (NCI-H23) | GI50 (HOP-92) | GI50 (NCI-H460) | GI50 (SF-295) | GI50 (SK-MEL-28) | GI50 (OVCAR-8) | GI50 (CCRF-CEM) | GI50 (HCT-15) |
| --- | --- | --- | --- | --- | --- | --- | --- | --- | --- | --- | --- | --- | --- | --- |
| CC1C(/C=C/c2ccoc2)ON2CCCC12 (stereo not given) | > 100 µM (inactive) | > 100 µM (inactive) | > 100 µM (inactive) | 35.6 µM (inactive) | > 100 µM (inactive) | > 100 µM (inactive) | > 100 µM (inactive) | 17.8 µM (inactive) | > 100 µM (inactive) | > 100 µM (inactive) | > 100 µM (inactive) | > 100 µM (inactive) |  |  |
| CN1c2ccccc2N(C(=O)c2ccc([N+](=O)[O-])cc2)C(CC(=O)O)c2cccn21 (stereo not given) | > 100 µM (inactive) | > 100 µM (inactive) | > 100 µM (inactive) | > 100 µM (inactive) | > 100 µM (inactive) | > 100 µM (inactive) | > 100 µM (inactive) | > 100 µM (inactive) | > 100 µM (inactive) | > 100 µM (inactive) | > 100 µM (inactive) | > 100 µM (inactive) | > 100 µM (inactive) | > 100 µM |
| c1ccc(N/N=C2\NN=C(c3ccccc3)CS2)cc1 | 11.5 µM (inactive) | 18.2 µM (inactive) | 15.7 µM (inactive) | 7.8 µM (inactive) | 6.46 µM (inactive) |  | 17.9 µM (inactive) | 11.3 µM (inactive) | 14 µM (inactive) | 7.46 µM (inactive) | 16.3 µM (inactive) | 5.27 µM (inactive) | 3.17 µM (inactive) | 4.59 µM |
| Nc1cc(O)c2cc(/N=N/c3ccc(/N=N/c4ccc(/N=N/c5ccc6cc(S(=O)(=O)O)cc(S(=O)(=O)O)c6c5)c5ccccc45)c4cc(S(=O)(=O)O)ccc34)c(S(=O)(=O)O)cc2c1 |  | > 100 µM (inactive) |  | > 100 µM (inactive) | > 10 µM (inactive) | > 100 µM (inactive) | > 100 µM (inactive) | 32.2 µM (inactive) | > 100 µM (inactive) | > 53.2 µM (inactive) | > 100 µM (inactive) | > 100 µM (inactive) | 61.5 µM (inactive) | 42.4 µM |
| COC1O[C@H]2CCN(C(=O)OCc3ccccc3)[C@H]2[C@H]1OCc1ccccc1 (stereo not given in full) | > 41.4 µM (inactive) | 29.8 µM (inactive) | > 100 µM (inactive) | 50 µM (inactive) | 69.2 µM (inactive) | 70.3 µM (inactive) | 20.3 µM (inactive) | 26.6 µM (inactive) | 44.3 µM (inactive) | 49.9 µM (inactive) | 41.2 µM (inactive) | 69.7 µM (inactive) | 34.9 µM (inactive) | 36.5 µM |
